Reference: patent EP4813992A1, “POLYARYL DERIVATIVE AND USE THEREOF” (Hangzhou HealZen Therapeutics Co., Ltd., priority 2023, dated 2025)

Legend:
HPK1 kinase [1] = target: T1, HPK1 kinase (Homo sapiens, UniProt Q92918); assay: Activity of degrading HPK1 in Jurkat cells (Western blot, 24 h); format: cell-based; parameters: endogenous in cells; host or cells: Jurkat; settings: HPK1 protein degradation
Protocol: The adjusted samples are added to 5*loading buffer, boiled at 100°C for 10 minutes, and then the samples are loaded after the temperature is returned to room temperature. • 4) Detection of samples: Electrophoresis is performed using 10% SDS-PAGE with a sample loading volume of 8 µL/well. After the membrane transfer is completed, the samples are blocked with 5% BSA at room temperature for 1 h. After the residual blocking solution is washed away with TBST, HPK1 and GAPDH antibodies are added for incubation overnight at 4°C. Washing is performed 3 more times with TBST on a shaker, 10 minutes each time. After washing is completed, the secondary antibody is added for incubation at room temperature for 1 hour; then, washing is performed 3 more times with TBST on a shaker, 10 minutes each time; finally, ECL exposure solution is used to develop and image the bands to detect changes in HPK1 protein.

HPK1 kinase [2] = target: T1, HPK1 kinase; assay: Lantha screen assay, inhibitory effect on HPK1 kinase; format: biochemical; settings: initial compound concentration 1 µM
Outline: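 Kinase pre-incubated with compound for 10 min at room temperature in 50 mM HEPES pH 7.5, 10 mM MgCl2, 4 mM DTT, 0.01% Tween-20, 0.01% BSA. Fluorescein-PKC substrate plus ATP then added for 90 min, stopped with antibody/EDTA for 60 min. Top concentration 1 µM; IC50 from four-parameter fit of inhibition vs log concentration.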

T1 sequence (Q92918 whole entry): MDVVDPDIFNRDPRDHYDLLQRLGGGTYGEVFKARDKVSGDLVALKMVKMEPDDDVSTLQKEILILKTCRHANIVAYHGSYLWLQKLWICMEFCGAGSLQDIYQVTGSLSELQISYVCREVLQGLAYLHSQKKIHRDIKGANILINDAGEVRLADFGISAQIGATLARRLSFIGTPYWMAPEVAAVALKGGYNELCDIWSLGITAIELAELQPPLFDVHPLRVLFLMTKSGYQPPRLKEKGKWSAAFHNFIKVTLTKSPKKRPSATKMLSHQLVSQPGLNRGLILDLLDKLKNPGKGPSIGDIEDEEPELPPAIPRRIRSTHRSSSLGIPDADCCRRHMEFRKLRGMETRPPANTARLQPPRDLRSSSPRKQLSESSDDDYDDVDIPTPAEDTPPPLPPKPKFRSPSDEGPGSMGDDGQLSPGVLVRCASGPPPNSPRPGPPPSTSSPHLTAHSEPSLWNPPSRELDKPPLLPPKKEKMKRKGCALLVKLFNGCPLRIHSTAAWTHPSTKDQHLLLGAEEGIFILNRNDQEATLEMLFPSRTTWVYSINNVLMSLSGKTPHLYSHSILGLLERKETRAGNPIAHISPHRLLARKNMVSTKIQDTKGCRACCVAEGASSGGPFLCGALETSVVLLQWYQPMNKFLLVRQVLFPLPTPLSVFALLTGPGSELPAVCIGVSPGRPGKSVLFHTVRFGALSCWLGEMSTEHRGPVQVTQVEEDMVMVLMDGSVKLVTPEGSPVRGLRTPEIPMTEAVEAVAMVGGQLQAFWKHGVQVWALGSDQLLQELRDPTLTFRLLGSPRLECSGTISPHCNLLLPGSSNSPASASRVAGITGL

SMILES	DC50 (HPK1 kinase [1]; class symbols) [nM]	IC50 (HPK1 kinase [2]) [nM]	DC50 (HPK1 kinase [1]; numeric values) [nM]
Cc1cc(-c2cnc3[nH]cc(-c4ccc(C(=O)N(C)C)cc4)c3n2)cc(C)c1C1=CCN(CC2CN(c3cc(F)c(N4CCC(=O)NC4=O)c(F)c3)C2)CC1 [compound 141]	< 10	–	–
Cc1cc(-c2cnc3[nH]cc(-n4cc(N5CCOCC5)cn4)c3n2)cc(C)c1C1=CCN(CC2CN(c3ccc(N4CCC(=O)NC4=O)c(F)c3)C2)CC1 [compound 157]	< 10	< 10	–
Cc1cc(N2CC(CN3CC=C(c4ccc(-c5cnc6[nH]cc(-c7ccc(C(=O)N(C)C)cc7)c6n5)cc4CN(C)C)CC3)C2)ccc1N1CCC(=O)NC1=O [compound 139]	< 10	< 10	–
Cc1cc(-c2cnc3[nH]cc(-n4cc(C#N)cn4)c3n2)cc(C)c1C1=CCN(CC2CN(c3ccc(N4CCC(=O)NC4=O)c(F)c3)C2)CC1 [compound 161]	< 10	< 10	–
Cc1cc(-c2cnc3[nH]cc(-n4cc(C(F)F)cn4)c3n2)cc(C)c1C1=CCN(CC2CN(c3ccc(N4CCC(=O)NC4=O)c(F)c3)C2)CC1 [compound 159]	< 10	< 10	–
COc1cc(N2CC(CN3CC=C(c4c(C)cc(-c5cnc6[nH]cc(-c7ccc(C(=O)N(C)C)cc7)c6n5)cc4C)CC3)C2)ccc1N1CCC(=O)NC1=O [compound 004]	–	< 10	–
Cc1cc(N2CC(CN3CC=C(c4c(C)cc(-c5cnc6[nH]cc(-c7cnn(C8CCNCC8)c7)c6c5)cc4C)CC3)C2)ccc1N1CCC(=O)NC1=O [compound 134]	–	< 10	–
Cc1cc(-c2cnc3[nH]cc(-c4ccc(C(=O)N(C)C[C@H](C)O)cc4)c3n2)cc(C)c1C1=CCN(CC2CN(c3ccc(C(=O)NC4CCC(=O)NC4=O)cc3)C2)CC1 (some centres unmarked) [compound 032]	–	< 10	–
Cc1cc(-c2cnc3[nH]cc(-c4ccc(C(=O)N(C)C)cc4)c3n2)cc(C)c1C1=CCN(CC2CN(c3ccc(N4CCC(=O)NC4=O)cc3)C2)CC1 [compound 008]	< 10	< 10	–
Cc1cc(-c2cnc3[nH]cc(-c4ccc(C(=O)N(C)C)cn4)c3n2)cc(C)c1C1=CCN(CC2CN(c3ccc(C(=O)NC4CCC(=O)NC4=O)cc3)C2)CC1 (centres unmarked) [compound 031]	–	< 10	–
Cc1cc(-c2cnc3[nH]cc(-c4ccc(C(=O)N(C)C)cc4)c3n2)cc(C)c1C1=CCN(CC2CN(c3cccc(C4CCC(=O)NC4=O)c3)C2)CC1 (centres unmarked) [compound 025]	–	< 10	–
COc1cc(C(=O)CCN2CC=C(c3c(C)cc(-c4cnc5[nH]cc(-c6ccc(C(=O)N(C)C)cc6)c5n4)cc3C)CC2)ccc1C1CCC(=O)NC1=O (centres unmarked) [compound 009]	–	< 10	–
Cc1cc(N2CC(CN3CC=C(c4ccc(-c5cnc6[nH]cc(-c7ccc(C(=O)N(C)C)cc7)c6n5)cc4F)CC3)C2)ccc1N1CCC(=O)NC1=O [compound 133]	–	< 10	–
Cc1cc(N2CC(N3CC=C(c4c(C)cc(-c5cnc6[nH]cc(-c7ccc(C(=O)N(C)C)cc7)c6n5)cc4C)CC3)C2)ccc1N1CCC(=O)NC1=O [compound 125]	–	< 10	–
COc1ccc(N2CCC(C)(CN3CC=C(c4c(C)cc(-c5cnc6[nH]cc(-c7ccc(C(=O)N(C)C)cc7)c6n5)cc4C)CC3)C2)cc1N1CCC(=O)NC1=O (centres unmarked) [compound 035]	–	< 10	–
Cc1cc(-c2cnc3[nH]cc(-c4ccc(C(=O)N(C)C)cc4)c3n2)cc(C)c1C1=CCN(CC2CCN(c3ccc(C(=O)NC4CCC(=O)NC4=O)cc3)CC2)CC1 (centres unmarked) [compound 065]	–	< 10	–

Other lines, results leading:

DC50 (HPK1 kinase [1]; class symbols) [nM]	IC50 (HPK1 kinase [2]) [nM]	DC50 (HPK1 kinase [1]; numeric values) [nM]	SMILES
< 10	< 10	–	Cc1cc(-c2cnc3[nH]cc(-c4cn(CC(F)(F)F)nn4)c3n2)cc(C)c1C1=CCN(CC2CN(c3ccc(N4CCC(=O)NC4=O)c(F)c3)C2)CC1 [compound 148]
< 10	< 10	–	Cc1cc(-c2cnc3[nH]cc(-c4c(C)noc4C)c3n2)cc(C)c1C1=CCN(CC2CN(c3ccc(N4CCC(=O)NC4=O)c(F)c3)C2)CC1 [compound 155]
< 10	< 10	–	Cc1cc(-c2cnc3[nH]cc(-c4cncs4)c3n2)cc(C)c1C1=CCN(CC2CN(c3ccc(N4CCC(=O)NC4=O)c(F)c3)C2)CC1 [compound 153]
< 10	< 10	–	Cc1cc(N2CC(CN3CC=C(c4c(C)cc(-c5cnc6[nH]cc(-c7ccc(C(=O)N(C)C)cc7F)c6n5)cc4C)CC3)C2)ccc1N1CCC(=O)NC1=O [compound 140]
< 10	< 10	–	Cc1cc(-c2cnc3[nH]cc(-c4cnc5ccc(C#N)cn45)c3n2)cc(C)c1C1=CCN(CC2CN(c3ccc(N4CCC(=O)NC4=O)c(F)c3)C2)CC1 [compound 166]
< 10	< 10	–	Cc1cc(-c2cnc3[nH]cc(-c4cc(Cl)sc4Cl)c3n2)cc(C)c1C1=CCN(CC2CN(c3ccc(N4CCC(=O)NC4=O)c(F)c3)C2)CC1 [compound 149]
< 10	< 10	–	Cc1cc(-c2cnc3[nH]cc(-c4ccc(C(=O)N(C)C)cc4)c3n2)cc(C)c1C1=CCN(C2CC3(CCN(c4ccc(N5CCC(=O)NC5=O)c(F)c4)C3)C2)CC1 (centres unmarked) [compound 117]
< 10	< 10	–	Cc1nsc(-c2c[nH]c3ncc(-c4cc(C)c(C5=CCN(CC6CN(c7ccc(N8CCC(=O)NC8=O)c(F)c7)C6)CC5)c(C)c4)nc23)n1 [compound 171]
< 10	< 10	–	Cc1cc(-c2cnc3[nH]cc(-c4ccc(C(=O)N(C)C)cc4)c3n2)cc(C)c1C1=CCN(CC2CN(c3ccc(C4CCC(=O)NC4=O)c(F)c3)C2)CC1 (centres unmarked) [compound 003]
< 10	< 10	–	Cc1cc(-c2cnc3[nH]cc(-c4cnco4)c3n2)cc(C)c1C1=CCN(CC2CN(c3ccc(N4CCC(=O)NC4=O)c(F)c3)C2)CC1 [compound 169]
–	< 10	22.3	CCN1CCC(n2cc(-c3c[nH]c4ncc(-c5cc(C)c(C6=CCN(CC7CN(c8ccc(N9CCC(=O)NC9=O)c(F)c8)C7)CC6)c(C)c5)nc34)cn2)CC1 [compound 108]
< 10	< 10	–	Cc1cc(-c2cnc3[nH]cc(-c4ccc(C(=O)N(C)C)cc4)c3n2)cc(C)c1C1=CCN(C2CC3(C2)CN(c2ccc(N4CCC(=O)NC4=O)c(F)c2)C3)CC1 [compound 119]
< 10	< 10	–	Cc1cc(-c2cnc3[nH]cc(-c4csc(CO)c4)c3n2)cc(C)c1C1=CCN(CC2CN(c3ccc(N4CCC(=O)NC4=O)c(F)c3)C2)CC1 [compound 151]
< 10	< 10	–	Cc1cc(-c2cnc3[nH]cc(-n4ncc5c4CCC5)c3n2)cc(C)c1C1=CCN(CC2CN(c3ccc(N4CCC(=O)NC4=O)c(F)c3)C2)CC1 [compound 164]
< 10	< 10	–	Cc1cc(N2CC(CN3CC=C(c4c(C)cc(-c5cnc6[nH]cc(-c7cnc8c(c7)N(C)CCO8)c6n5)cc4C)CC3)C2)ccc1N1CCC(=O)NC1=O [compound 132]
< 10	< 10	–	Cc1cc(N2CC(CN3CC=C(c4c(C)cc(-c5cnc6[nH]cc(-c7cnc8ccn(C)c8c7)c6c5)cc4C)CC3)C2)ccc1N1CCC(=O)NC1=O [compound 111]
< 10	< 10	–	Cc1cc(N2CC(CN3CC=C(c4c(C)cc(-c5cnc6[nH]cc(-c7ccc(C(=O)N(C)C)cc7)c6c5)cc4C)CC3)C2)ccc1N1CCC(=O)NC1=O [compound 013]
< 10	< 10	–	Cc1cc(-c2cnc3[nH]cc(-c4cnsc4)c3n2)cc(C)c1C1=CCN(CC2CN(c3ccc(N4CCC(=O)NC4=O)c(F)c3)C2)CC1 [compound 154]
< 10	< 10	–	Cc1cnn(-c2c[nH]c3ncc(-c4cc(C)c(C5=CCN(CC6CN(c7ccc(N8CCC(=O)NC8=O)c(F)c7)C6)CC5)c(C)c4)nc23)c1 [compound 158]
